Legend:
[1] = target: T1, P2X4 (Homo sapiens, UniProt Q99571); assay: Assay B: human P2X4 receptor cell line, mitochondrial photina luminescence (agonist Bz-ATP at EC50); format: cell-based; design: host or cells: HEK 293 (recombinant, constitutively expressing; with mitochondrial photina in Assay B); settings: for Emax: read-out: human P2X4 Assay B avg Efficacy
T1 sequence (Q99571 1-388): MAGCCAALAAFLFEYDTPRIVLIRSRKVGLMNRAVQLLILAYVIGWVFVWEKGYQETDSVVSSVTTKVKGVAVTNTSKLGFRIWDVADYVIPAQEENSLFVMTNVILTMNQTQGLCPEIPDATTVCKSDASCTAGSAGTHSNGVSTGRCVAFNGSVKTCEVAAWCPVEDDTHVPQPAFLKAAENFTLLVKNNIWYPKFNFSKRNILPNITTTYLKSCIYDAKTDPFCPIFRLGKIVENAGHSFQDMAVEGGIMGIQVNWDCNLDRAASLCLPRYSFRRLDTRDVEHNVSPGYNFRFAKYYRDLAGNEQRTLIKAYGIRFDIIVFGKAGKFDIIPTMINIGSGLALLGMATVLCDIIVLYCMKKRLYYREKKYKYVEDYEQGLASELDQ
Procedure, shortened: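 Recombinant cell line constitutively expressing human P2X4 and mitochondrial photina photoprotein, reconstituted with coelenterazine. Receptor stimulated with Bz-ATP at EC50; calcium influx read immediately as luminescence.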

[2] = target: T1, P2X4; assay: Assay A: human P2X4 receptor cell line, FLIPR calcium assay (Fluo-8, agonist Bz-ATP at EC80); format: cell-based; design: host or cells: HEK 293 (recombinant, constitutively expressing; with mitochondrial photina in Assay B); settings: for IC50: Bz-ATP at EC80, average values; for Emax: read-out: human P2X4 Assay A avg Efficacy
Procedure, shortened: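 HEK cells expressing human P2X4 (20,000/well, plated ~20 h earlier) loaded 30 min with 5 μM Fluo-8 in HBSS/HEPES buffer with 1.8 mM CaCl2, 1 mM MgCl2, 2 mM probenecid, pH 7.4. Antagonist preincubated 30 min at room temperature (0.5% DMSO), then Bz-ATP at EC80. Peak fluorescence over 120 s, normalized to DMSO; triplicate IC50 and Hill fits.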

[3] = HEK human P2X4 cell line, photina luminescence, agonist Bz-ATP at EC50, average
[4] = HEK human P2X4 cells, Fluo-8 FLIPR
[5] = percentage of maximal inhibition, HEK human P2X4 cells, Fluo-8 FLIPR

SMILES | IC50 [1, 3] [nM] | Emax [1, 3] [%] | IC50 [2, 4] [nM] | Emax [2, 5] [%] | Emax [1] [%] | Emax [2] [%]
NS(=O)(=O)c1cc(NC(=O)Cc2cc(OC(F)(F)C(F)F)ccc2Cl)ccc1Oc1cccc(Cl)c1 [Example 134, N-[4-(3-Chlorophenoxy)-3-sulfamoylphenyl]-2-[2-chloro-5-(1,1,2,2-tetrafluoroethoxy)phenyl]acetamide] | 1350 | 77 | 688 | 83 |  | 
NS(=O)(=O)c1cc(NC(=O)Cc2ccccc2Cl)cnc1Oc1cccc(C(F)(F)F)c1 [Example 168, 2-(2-chlorophenyl)-N-{5-sulfamoyl-6-[3-(trifluoromethyl)phenoxy]pyridin-3-yl}acetamide] | 181 | 85 | 86 | 90 |  | 
Cc1ccc(F)c(CC(=O)Nc2ccc(Oc3cccc(Cl)c3)c(S(N)(=O)=O)c2)c1Cl [Example 120, 2-(2-Chloro-6-fluoro-3-methylphenyl)-N-[4-(3-chlorophenoxy)-3-sulfamoylphenyl]acetamide] | 194 | 78 | 65 | 83 |  | 
CC1(COc2ccc(NC(=O)Cc3ccccc3Cl)cc2S(N)(=O)=O)CCOCC1 [Example 053, 2-(2-Chlorophenyl)-N-{4-[(4-methyltetrahydro-2H-pyran-4-yl)methoxy]-3-sulfamoylphenyl}acetamide] | 859 | 84 | 197 | 90 |  | 
NS(=O)(=O)c1cc(NC(=O)Cc2ccccc2Cl)ccc1Oc1ccc(N2CCOC2=O)cc1 [Example 063, 2-(2-chlorophenyl)-N-{4-[4-(2-oxo-1,3-oxazolidin-3-yl)phenoxy]-3-sulfamoylphenyl}acetamide] | 221 | 70 | 90 | 82 |  | 
NS(=O)(=O)c1cc(NC(=O)Cc2ccccc2F)ccc1OCC1CCOCC1 [Example 279, 2-(2-Fluorophenyl)-N-[3-sulfamoyl-4-(tetrahydro-2H-pyran-4-ylmethoxy)phenyl]acetamide] |  |  |  |  | 85 | 61
N#Cc1ccc(CC(=O)Nc2ccc(Oc3cccc(Cl)c3)c(S(N)(=O)=O)c2)cc1 [Example 224, N-[4-(3-Chlorophenoxy)-3-sulfamoylphenyl]-2-(4-cyanophenyl)acetamide] | 623 | 61 | 345 | 78 |  | 
NS(=O)(=O)c1cc(NC(=O)Cc2c(Cl)ccc(C3CC3)c2Cl)ccc1Oc1cccc(Cl)c1 [Example 129, N-[4-(3-Chlorophenoxy)-3-sulfamoylphenyl]-2-(2,6-dichloro-3-cyclopropylphenyl)acetamide] | 1300 | 69 | 1170 | 83 |  | 
NS(=O)(=O)c1cc(NC(=O)Cc2ccc(C(F)(F)F)cc2)ccc1Oc1cccc(Cl)c1 [Example 116, N-[4-(3-Chlorophenoxy)-3-sulfamoylphenyl]-2-[4-(trifluoromethyl)phenyl]acetamide] |  | 72 |  | 87 |  | 
CC(C(=O)Nc1ccc(Oc2cccc(Cl)c2)c(S(N)(=O)=O)c1)c1ccccc1Cl (stereo not shown) [Example 196, N-[4-(3-Chlorophenoxy)-3-sulfamoylphenyl]-2-(2-chlorophenyl)propanamide] |  |  |  |  | 71 | 82

Continued, in another order:

IC50 [1, 3] [nM] | Emax [1, 3] [%] | IC50 [2, 4] [nM] | Emax [2, 5] [%] | SMILES | Emax [1] [%] | Emax [2] [%]
102 | 83 | 10 | 90 | CS(=O)(=O)c1cccc(COc2ccc(NC(=O)Cc3ccccc3Cl)cc2S(N)(=O)=O)c1 [Example 136, 2-(2-Chlorophenyl)-N-(4-{[3-(methylsulfonyl)benzyl]oxy}-3-sulfamoylphenyl)acetamide] |  | 
147 | 72 | 53 | 88 | Cc1nc(-c2cccc(Oc3ccc(NC(=O)Cc4ccccc4Cl)cc3S(N)(=O)=O)c2)cs1 [Example 061, 2-(2-Chlorophenyl)-N-{4-[3-(2-methyl-1,3-thiazol-4-yl)phenoxy]-3-sulfamoylphenyl}acetamide] |  | 
188 | 56 | 63 | 70 | NS(=O)(=O)c1cc(NC(=O)Cc2ccccc2Cl)ccc1Oc1cccc(C(=O)NC2CC2)c1 [Example 037, 3-(4-{[(2-Chlorophenyl)acetyl]amino}-2-sulfamoylphenoxy)-N-cyclopropylbenzamide] |  | 
 | 68 |  | 86 | COc1ccccc1CC(=O)Nc1ccc(Oc2cccc(Cl)c2)c(S(N)(=O)=O)c1 [Example 192, N-[4-(3-Chlorophenoxy)-3-sulfamoylphenyl]-2-(2-methoxyphenyl)acetamide] |  | 
 | 70 |  | 81 | NS(=O)(=O)c1cc(NC(=O)Cc2ccccc2Cl)ccc1Oc1ccccc1Cl [Example 065, N-[4-(2-Chlorophenoxy)-3-sulfamoylphenyl]-2-(2-chlorophenyl)acetamide] |  | 
159 | 37 | 254 | 79 | NS(=O)(=O)c1cc(NC(=O)Cc2ccc(Cl)cc2Cl)ccc1Oc1cccc(Cl)c1 [Example 110, N-[4-(3-Chlorophenoxy)-3-sulfamoylphenyl]-2-(2,4-dichlorophenyl)acetamide] |  | 
 | 80 |  | 62 | CC(C)(O)c1ccc(Oc2ccc(NC(=O)Cc3ccccc3Cl)cc2S(N)(=O)=O)cc1 [Example 264, 2-(2-Chlorophenyl)-N-{4-[4-(2-hydroxypropan-2-yl)phenoxy]-3-sulfamoylphenyl}acetamide] |  | 
 | 66 |  | 85 | NS(=O)(=O)c1cc(NC(=O)Cc2ccccc2Cl)ccc1Oc1cccc(C(=O)N2CCOCC2)c1 [Example 052, 2-(2-Chlorophenyl)-N-{4-[3-(morpholin-4-ylcarbonyl)phenoxy]-3-sulfamoylphenyl}acetamide] |  | 
124 | 83 | 20 | 87 | NS(=O)(=O)c1cc(NC(=O)Cc2ccccc2Cl)ccc1Oc1cccc(N2CCOC2=O)c1 [Example 051, 2-(2-Chlorophenyl)-N-{4-[3-(2-oxo-1,3-oxazolidin-3-yl)phenoxy]-3-sulfamoylphenyl}acetamide] |  | 
 | 79 |  | 70 | Cn1cc(Oc2ccc(NC(=O)Cc3ccccc3Cl)cc2S(N)(=O)=O)cn1 [Example 233, 2-(2-Chlorophenyl)-N-{4-[(1-methyl-1H-pyrazol-4-yl)oxy]-3-sulfamoylphenyl}acetamide] |  | 
69 | 97 | 143 | 88 | NS(=O)(=O)c1cc(NC(=O)Cc2ccccc2Cl)ccc1OCc1ccncc1 [Example 151, 2-(2-Chlorophenyl)-N-[4-(pyridin-4-ylmethoxy)-3-sulfamoylphenyl]acetamide] |  | 
27 | 59 | 78 | 72 | Cc1cccc(Cl)c1CC(=O)Nc1ccc(Oc2cccc(Cl)c2)c(S(N)(=O)=O)c1 [Example 096, 2-(2-Chloro-6-methylphenyl)-N-[4-(3-chlorophenoxy)-3-sulfamoylphenyl]acetamide] |  | 
 | 54 |  | 87 | COc1cccc(Oc2ccc(NC(=O)Cc3ccccc3Cl)cc2S(N)(=O)=O)c1 [Example 022, 2-(2-Chlorophenyl)-N-[4-(3-methoxyphenoxy)-3-sulfamoylphenyl]acetamide] |  | 
 | 79 |  | 75 | NS(=O)(=O)c1cc(NC(=O)Cc2ccccc2Cl)ccc1Oc1cccnc1 [Example 028, 2-(2-Chlorophenyl)-N-[4-(pyridin-3-yloxy)-3-sulfamoylphenyl]acetamide] |  | 
